Reference: patent publication US6849635B2, “Sulfonamides” (SmithKline Beecham Corporation, priority 2001, dated 2005)

Assays:
[1] = target: T1, cloned human and rat GPR-14 (UniProt Q9UKP6); test: Radioligand binding, [125I] h-U-II on HEK-293 cell membranes; settings: HEK-293 cell membranes with stable cloned GPR-14, 200 pM [125I] h-U-II; species of receptor not given
T1 sequence (Q9UKP6 1-389): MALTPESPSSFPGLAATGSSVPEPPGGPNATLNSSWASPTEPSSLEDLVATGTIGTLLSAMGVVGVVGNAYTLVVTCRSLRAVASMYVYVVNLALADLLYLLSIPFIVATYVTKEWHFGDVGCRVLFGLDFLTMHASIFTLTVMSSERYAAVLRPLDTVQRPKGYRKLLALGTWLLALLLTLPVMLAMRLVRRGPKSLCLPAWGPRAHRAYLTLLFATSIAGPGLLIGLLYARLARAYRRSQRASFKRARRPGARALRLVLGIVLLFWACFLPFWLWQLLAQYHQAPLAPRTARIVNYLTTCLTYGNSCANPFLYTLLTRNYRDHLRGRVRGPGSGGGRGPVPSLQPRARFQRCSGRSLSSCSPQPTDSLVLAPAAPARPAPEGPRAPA
Procedure: HEK-293 cell membranes containing stable cloned human and rat GPR-14 (20 ug/assay) were incubated with 200 pM [125I] h-U-II (200 Ci/mmol^−1 in the presence of increasing concentrations of test compounds in DMSO (0.1 nM to 10 uM), in a final incubation volume of 200 ul (20 mM Tris-HCl, 5 mM MgCl2). Incubation was done for 30 minutes at room temperature followed by filtration GF/B filters with Brandel cell harvester. ^125I labeled U-II binding was quantitated by gamma counting. Nonspecific binding was defined by ^125I U-II binding in the presence of 100 nM of unlabeled human U-II. Analysis of the data was performed by nonlinear least square fitting.

`CCN(CC)CCOc1cc(NS(=O)(=O)c2cc(Cl)c(Oc3ccc([N+](=O)[O-])cc3Cl)c(Cl)c2)ccc1Cl` [Example 19, 3,5-Dichloro-N-[4-chloro-3-(2-diethylamino-ethoxy)-phenyl]-4-(2-chloro-4-nitro-phenoxy)-benzenesulfonamide] showed a Ki [1] of 520 nM.
In the case of `CN(C)CCOc1cc(NS(=O)(=O)c2ccc(Oc3cccc(Cl)c3C#N)cc2)ccc1Cl` [Example 1, 4-(3-Chloro-2-cyano-phenoxy)N-[4-chloro-3-(2-dimethylamino-ethoxy)-phenyl]-benzenesulfonamide], the melting point is reported as 103 to 106 °C (dec.).
